Assay results taken from ChEMBL document CHEMBL1129014, “Crystal receptor models in medicinal chemistry: Application to the generation of highly potent potassium channel openers” (Bioorg Med Chem Lett, 1996).

organism: Cavia porcellus; assay: Inhibitory activity against potassium (15 mM) induced contractions of the guinea pig detrusor smooth muscle.; format: functional

| SMILES | IC50 |
| --- | --- |
| C[C@](O)(C(=O)Nc1ccc(S(=O)(=O)c2ccccc2)cc1)C(F)(F)F | 1000 nM |
| C[C@]1(C(F)(F)F)CN(c2cccc[n+]2[O-])c2cc(S(=O)(=O)c3ccccc3)ccc2O1 | 680 nM |
| CC1(C(F)(F)F)CN(c2cccc[n+]2[O-])c2cc(S(=O)(=O)c3ccccc3)ccc2O1 (stereo not drawn) | 540 nM |
| CC1(C)Oc2ccc(C#N)cc2[C@@H](N2CCCC2=O)[C@@H]1O [CROMAKALIM] | 600 nM |

Now from value to compound:

| IC50 | SMILES |
| --- | --- |
| 500 nM | C[C@](O)(C(=O)Nc1ccc([N+](=O)[O-])cc1)C(F)(F)F |
| 280 nM | C[C@@]1(C(F)(F)F)CN(c2cccc[n+]2[O-])c2cc(S(=O)(=O)c3ccccc3)ccc2O1 |
| 7 nM | O=[N+]([O-])c1ccc2c(c1)N(c1cccc[n+]1[O-])CC(C(F)F)(C(F)F)O2 |
| 4100 nM | CC1(C)CN(c2cccc[n+]2[O-])c2cc(S(=O)(=O)c3ccccc3)ccc2O1 |
